The molecules below were run on C666-1 cells (assay: C666-1 cell viability single concentration (50 μM) inhibition rate (Resazurin)). Conditions: Homo sapiens, C6661, 72 h, 50 μM compound, 72 hours, C666-1 cells; read-out: C666-1 cell viability single concentration (50 μM) inhibition rate, Ratio* (Inh %).
Type: cell-based
Experimental: In order to assess the effect of the EBNA1 inhibitor at the cellular level, the cell proliferation inhibition rate was tested, and the inhibition rate of inhibitor at a specific concentration on the proliferation of Epstein-Barr virus positive cell line C666-1 was detected.
In the test, 100 μL C666-1 cells were inoculated in a transparent 96-well plate, and each well contained 5×10^3 cells. After the cells were cultured in an incubator with 5% carbon dioxide at 37° C. for 24 hours, 10 μL compound at a concentration of 500 μmol/L was added into the cells, so that the final concentration of the compound was 50 μmol/L. Two replicate wells were set for each compound, the wells treated with DMSO were set as control wells (Ctrl), and the wells with cell culture medium only were set as blank wells (blank), and they were treated in the incubator with carbon dioxide at 37° C. for 72 hours. The cell viability was assessed using a redox indicator Resazurin. Specifically, 10 μL Resazurin at a concentration of 600 umol/L was added into each well, and incubated at 37° C. for 3 hours, and a Tecan microplate reader was used to detect the fluorescence signal at an excitation wavelength of 560 nm and an emission wavelength of 590 nm. The formula inh %=1−(F−Fblank)/(FCtrl−Fblank)×100% (where, F is the fluorescence intensity of the compound-added wells, FCtrl and Fblank are the readings of the control wells and blank wells, respectively) was used to calculate the inhibition rate of the compound on the proliferation of C666-1 cells, so as to assess the activity of the compound on Epstein-Barr virus positive cells.
With `O=C(O)c1cccc(N2CC(Oc3ccc(CO)cc3)C2)c1-c1cccc(C(F)(F)F)c1` [Compound 60, 3′-(trifluoromethyl)-6-(3-(4-(hydroxymethyl)phenoxy)azetidin-1-yl)-[1,1′-biphenyl]-2-formic acid] the inhibition at 50 µM was under 10%.
Work on `COC(=O)c1cccc(N2CC(Oc3ccc(CO)cc3)C2)c1-c1cc(F)cc(F)c1` [Compound 61, Methyl 3′,5′-difluoro-6-(3-(4-(hydroxymethyl)phenoxy)azetidin-1-yl)-[1,1′-biphenyl]-2-formate] yielded an inhibition at 50 µM of 10 to 30%.
`O=C(O)c1cccc(N2CC(Oc3ccc(CO)cc3)C2)c1-c1cc(F)cc(F)c1` [Compound 62, 3′,5′-difluoro-6-(3-(4-(hydroxymethyl)phenoxy)azetidin-1-yl)-[1,1′-biphenyl]-2-formic acid] showed an inhibition at 50 µM of under 10%.
`COC(=O)c1cccc(N2CC(Oc3ccc(CO)cc3)C2)c1-c1ccc(-c2ccccc2)cc1` [Compound 63, Methyl 6-(3-(4-(hydroxymethyl)phenoxy)azetidin-1-yl)-[1,1′:4′,1″-terphenyl]-2-formate] showed an inhibition at 50 µM of 10 to 30%.
In the case of `O=C(O)c1cccc(N2CC(Oc3ccc(CO)cc3)C2)c1-c1ccc(-c2ccccc2)cc1` [Compound 64, 6-(3-(4-(hydroxymethyl)phenoxy)azetidin-1-yl)-[1,1′:4′,1″-terphenyl]-2-formic acid], the inhibition at 50 µM is reported as over 50%.
With `COC(=O)c1cccc(N2CC(Oc3ccc(CO)cc3)C2)c1-c1cccc(NS(C)(=O)=O)c1` [Compound 65, Methyl 3′-(methylsulfonamido)-6-(3-(4-(hydroxymethyl)phenoxy)azetidin-1-yl)-[1,1′-biphenyl]-2-formate] the inhibition at 50 µM was 30 to 50%.
`COC(=O)c1cccc(N2CC(Oc3ccc(CO)cc3)C2)c1-c1cccc(OC)c1` [Compound 66, Methyl 3′-methoxy-6-(3-(4-(hydroxymethyl)phenoxy)azetidin-1-yl)-[1,1′-biphenyl]-2-formate] gave an inhibition at 50 µM of 30 to 50%.
`COc1cccc(-c2c(C(=O)O)cccc2N2CC(Oc3ccc(CO)cc3)C2)c1` [Compound 67, 3′-methoxy-6-(3-(4-(hydroxymethyl)phenoxy)azetidin-1-yl)-[1,1′-biphenyl]-2-formic acid] was tested, and the inhibition at 50 µM was under 10%.
Work on `COC(=O)c1cccc(N2CC(Oc3ccc(CO)cc3)C2)c1-c1ccc(F)c(C#N)c1` [Compound 68, Methyl 3′-cyano-4′-fluoro-6-(3-(4-(hydroxymethyl)phenoxy)azetidin-1-yl)-[1,1′-biphenyl]-2-formate] yielded an inhibition at 50 µM of 10 to 30%.
`COC(=O)c1cccc(N2CC(Oc3ccc(CO)cc3)C2)c1-n1cccn1` [Compound 69, Methyl 3-(3-(4-(hydroxymethyl)phenoxy)azetidin-1-yl)-2-(1H-pyrazol-1-yl)benzoate] showed an inhibition at 50 µM of 10 to 30%.
`O=C(O)c1cccc(N2CC(Oc3ccc(CO)cc3)C2)c1-n1cccn1` [Compound 70, 3-(3-(4-(hydroxymethyl)phenoxy)azetidin-1-yl)-2-(1H-pyrazol-1-yl)benzoic acid] gave an inhibition at 50 µM of under 10%.
`O=C(O)c1cccc(OC2CN(c3cccc(C(=O)NCc4ccccc4)c3)C2)c1` [Compound 71, 3-((1-(3-(benzylcarbamoyl)phenyl)azetidin-3-yl)oxy)benzoic acid] gave an inhibition at 50 µM of under 10%.
In the case of `Nc1c(C(=O)O)cccc1N1CC(Oc2cccc(C(=O)O)c2)C1` [Compound 72, 3-(3-(3-carboxylphenoxy)azetidin-1-yl)-2-aminobenzoic acid], the inhibition at 50 µM is reported as under 10%.
`O=C(O)c1cccc(OC2CN(c3cccc(C(=O)O)c3-n3cccc3)C2)c1` [Compound 73, 3-(3-(3-carboxylphenoxy)azetidin-1-yl)-2-(1H-pyrrol-1-yl)benzoic acid] was tested, and the inhibition at 50 µM was under 10%.
Molecule `COC(=O)c1cccc(N2CC(Oc3ccc(COC(C)=O)cc3)C2)c1-n1cccc1` [Compound 74, Methyl 3-(3-(4-(acetoxylmethyl)phenoxy)azetidin-1-yl)-2-(1H-pyrrol-1-yl)benzoate] has an inhibition at 50 µM of under 10%.
`CCCCCCCC(=O)OCc1ccc(OC2CN(c3cccc(C(=O)OC)c3-n3cccc3)C2)cc1` [Compound 75, Methyl 3-(3-(4-((octanoyloxy)methyl)phenoxy)azetidin-1-yl)-2-(1H-pyrrol-1-yl)benzoate] showed an inhibition at 50 µM of 10 to 30%.
Molecule `COC(=O)c1cccc(N2CC(Oc3ccc(CNC(C)=O)cc3)C2)c1-n1cccc1` [Compound 76, Methyl 3-(3-(4-(acetylaminomethyl)phenoxy)azetidin-1-yl)-2-(1H-pyrrol-1-yl)benzoate] has an inhibition at 50 µM of 10 to 30%.
`CC(=O)NCc1ccc(OC2CN(c3cccc(C(=O)O)c3-n3cccc3)C2)cc1` [Compound 77, 3-(3-(4-(acetylaminomethyl)phenoxy)azetidin-1-yl)-2-(1H-pyrrol-1-yl)benzoic acid] showed an inhibition at 50 µM of under 10%.
Work on `COC(=O)c1cccc(N2CC(Oc3ccc(CNS(=O)(=O)C4CC4)cc3)C2)c1-n1cccc1` [Compound 78, Methyl 3-(3-(4-(cyclopropylsulfonamidomethyl)phenoxy)azetidin-1-yl)-2-(1H-pyrrol-1-yl)benzoate] yielded an inhibition at 50 µM of over 50%.
Work on `COC(=O)c1cccc(N2CC(Oc3cccc(OC)c3)C2)c1-n1cccc1` [Compound 79, Methyl 3-(3-(3-methoxyphenoxy)azetidin-1-yl)-2-(1H-pyrrol-1-yl)benzoate] yielded an inhibition at 50 µM of 10 to 30%.
`COc1cccc(OC2CN(c3cccc(C(=O)O)c3-n3cccc3)C2)c1` [Compound 80, 3-(3-(3-methoxyphenoxy)azetidin-1-yl)-2-(1H-pyrrol-1-yl)benzoic acid] gave an inhibition at 50 µM of under 10%.
With `COC(=O)c1cccc(N2CC(Oc3ccc(C(F)(F)F)cc3)C2)c1-n1cccc1` [Compound 81, Methyl 2-(1H-pyrrol-1-yl)-3-(3-(4-(trifluoromethyl)phenoxy)azetidin-1-yl)benzoate] the inhibition at 50 µM was 10 to 30%.
Work on `O=C(O)c1cccc(N2CC(Oc3ccc(C(F)(F)F)cc3)C2)c1-n1cccc1` [Compound 82, 2-(1H-pyrrol-1-yl)-3-(3-(4-(trifluoromethyl)phenoxy)azetidin 1-yl)benzoic acid] yielded an inhibition at 50 µM of under 10%.
With `COC(=O)c1cccc(N2CC(Oc3ccc(OC(F)(F)F)cc3)C2)c1-n1cccc1` [Compound 83, Methyl 2-(1H-pyrrol-1-yl)-3-(3-(4-(trifluoromethoxy)phenoxy)azetidin-1-yl)benzoate] the inhibition at 50 µM was over 50%.
Molecule `O=C(O)c1cccc(N2CC(Oc3ccc(OC(F)(F)F)cc3)C2)c1-n1cccc1` [Compound 84, 2-(1H-pyrrol-1-yl)-3-(3-(4-(trifluoromethoxy)phenoxy)azetidin-1-yl)benzoic acid] has an inhibition at 50 µM of under 10%.
In the case of `COC(=O)c1cccc(N2CC(Oc3ccc(Cl)nc3)C2)c1-n1cccc1` [Compound 85, Methyl 3-(3-((6-chloropyridin-3-yl)oxy)azetidin-1-yl)-2-(1H-pyrrol-1-yl)benzoate], the inhibition at 50 µM is reported as over 50%.
`O=C(O)c1cccc(N2CC(Oc3ccc(Cl)nc3)C2)c1-n1cccc1` [Compound 86, 3-(3-((6-chloropyridin-3-yl)oxy)azetidin-1-yl)-2-(1H-pyrrol-1-yl)benzoic acid] was tested, and the inhibition at 50 µM was under 10%.
`COC(=O)c1cccc(N2CC(Oc3ccc(C(C)=O)cc3)C2)c1-n1cccc1` [Compound 87, Methyl 3-(3-(4-acetylphenoxy)azetidin-1-yl)-2-(1H-pyrrol-1-yl)benzoate] gave an inhibition at 50 µM of over 50%.
`CC(=O)c1ccc(OC2CN(c3cccc(C(=O)O)c3-n3cccc3)C2)cc1` [Compound 88, 3-(3-(4-acetylphenoxy)azetidin-1-yl)-2-(1H-pyrrol-1-yl)benzoic acid] gave an inhibition at 50 µM of under 10%.
`COC(=O)c1cccc(N2CC(Oc3ccc(C(C)O)cc3)C2)c1-n1cccc1` (stereo not drawn) [Compound 89, Methyl 3-(3-(4-(1-hydroxyethyl)phenoxy)azetidin-1-yl)-2-(1H-pyrrol-1-yl)benzoate] showed an inhibition at 50 µM of over 50%.
`CC(O)c1ccc(OC2CN(c3cccc(C(=O)O)c3-n3cccc3)C2)cc1` (stereo not drawn) [Compound 90, 3-(3-(4-(1-hydroxyethyl)phenoxy)azetidin-1-yl)-2-(1H-pyrrol-1-yl)benzoic acid] was tested, and the inhibition at 50 µM was under 10%.
Molecule `COC(=O)c1cccc(N2CC(Oc3cc(Cl)nc(Cl)c3)C2)c1-n1cccc1` [Compound 91, Methyl 3-(3-((2,6-dichloropyridin-4-yl)oxy)azetidin-1-yl)-2-(1H-pyrrol-1-yl)benzoate] has an inhibition at 50 µM of under 10%.
For `O=C(O)c1cccc(N2CC(Oc3cc(Cl)nc(Cl)c3)C2)c1-n1cccc1` [Compound 92, 3-(3-((2,6-dichloropyridin-4-yl)oxy)azetidin-1-yl)-2-(1H-pyrrol-1-yl)benzoic acid], the inhibition at 50 µM was under 10%.
For `COC(=O)c1cccc(N2CC(Oc3ccc(C#N)cc3)C2)c1-n1cccc1` [Compound 93, Methyl 3-(3-(4-cyanophenoxy)azetidin-1-yl)-2-(1H-pyrrol-1-yl)benzoate], the inhibition at 50 µM was 30 to 50%.
Molecule `N#Cc1ccc(OC2CN(c3cccc(C(=O)O)c3-n3cccc3)C2)cc1` [Compound 94, 3-(3-(4-cyanophenoxy)azetidin-1-yl)-2-(1H-pyrrol-1-yl)benzoic acid] has an inhibition at 50 µM of under 10%.
Work on `COC(=O)c1cccc(N2CC(Oc3ccc(Cl)cc3)C2)c1-n1cccc1` [Compound 95, Methyl 3-(3-(4-chlorophenoxy)azetidin-1-yl)-2-(1H-pyrrol-1-yl)benzoate] yielded an inhibition at 50 µM of under 10%.

From patent US20230157996A1, “SMALL-MOLECULE INHIBITOR TARGETING EB VIRUS NUCLEAR ANTIGEN PROTEIN, PREPARATION METHOD AND USE THEREOF” (priority 2020, published 2023)
